Reference: paper PMC6522510 (Nature Communications, 2019)
Read-outs that look alike come from different tables or passages of the source.

What was measured:
Parameters in all cases: species or system AML cell lines (8); Primary HTS, single concentration about 10 uM, Cell Titer Glo viability; log10 luminescence, per cent inhibition relative to cycloheximide control
Conditions in all cases: 72 h, inhibitor
MOLM-13 = tested on: MOLM-13
M07e = tested on: M07e
CMS = tested on: CMS
ML-2 = tested on: ML-2
U937 = tested on: U937
CHRF288-11 = tested on: CHRF288-11
MV4-11 = tested on: MV4-11
CMK = tested on: CMK
[1] = relative to cycloheximide control, log10 luminescence

SMILES	MOLM-13 %inh (MOLM-13; [1]) [%]	M07e %inh (M07e; [1]) [%]	CMS %inh (CMS; [1]) [%]	ML-2 %inh (ML-2; [1]) [%]	U937 %inh (U937; [1]) [%]	CHRF288-11 %inh (CHRF288-11; [1]) [%]	MV4-11 %inh (MV4-11; [1]) [%]	CMK %inh (CMK; [1]) [%]	MOLM-13 %inh (MOLM-13; 10 µM) [%]	M07e %inh (M07e; 10 µM) [%]	CMS %inh (CMS; 10 µM) [%]	ML-2 %inh (ML-2; 10 µM) [%]	U937 %inh (U937; 10 µM) [%]	CHRF288-11 %inh (CHRF288-11; 10 µM) [%]	MV4-11 %inh (MV4-11; 10 µM) [%]	CMK %inh (CMK; 10 µM) [%]
CS(=O)(=O)Nc1cccc(-c2ccc3c(NC(=O)C4CC4)n[nH]c3c2)c1 [SJ000573187-1, VB100064-178A3]	75.64	29.33	0.4745	56.77	80.28	25.27	73.57	72.59	–	–	–	–	–	–	–	–
[O-][S+]1CCN(Cc2ccc(-c3ccc4ncnc(Nc5ccc(OCc6ccccc6)c(F)c5)c4c3)o2)CC1 [SJ000573188-1, U14859/145/2]	2.781	-1.871	-1.026	-0.4978	-0.5877	1.525	1.608	-1.588	–	–	–	–	–	–	–	–
O=C(Nc1n[nH]c2cc(-c3cc(F)ccc3F)ccc12)C1CC1 [SJ000573189-1, VB100064-133A2]	3.339	13.96	3.394	4.109	8.276	23.56	1.045	46.32	–	–	–	–	–	–	–	–
CC1(C)CC(n2cnc(-c3ccc(F)cc3)c2-c2ccnc(N)n2)CC(C)(C)N1 [SJ000573190-1, JB19236-188C1]	0.169	10.18	-2.621	5.936	-2.021	9.345	1.547	5.841	–	–	–	–	–	–	–	–
CC(C)c1ccc(Nc2nccc(-c3cnn4ncccc34)n2)cc1 [SJ000573192-1, U16419/190/2]	111.4	49.73	101.8	59.67	82.47	27.16	84.54	58.79	–	–	–	–	–	–	–	–
CCc1cccc(NC(=O)Nc2ccc(Oc3ccc4nc(NC(=O)OC)[nH]c4c3)cc2)c1 [SJ000573193-1, T229/79/1]	61.84	0.5293	-0.1127	5.896	3.761	-2.602	84.23	50	–	–	–	–	–	–	–	–
Cc1nnc(-c2ccc(C)c(-c3ccc(C(=O)Nc4cccc(C#N)c4)cc3)c2)o1 [SJ000573195-1, R4373/145/1]	1.779	-0.9532	-1.248	2.033	-2.444	-2.997	0.5717	1.609	–	–	–	–	–	–	–	–
COc1ccc2cc(-c3c(-c4ccncc4)nc(-c4ccc(S(C)(=O)=O)cc4C)n3C)ccc2c1 [SJ000573196-1, NJ44157-082B1]	0.5598	-0.09869	1.339	0.1738	-1.98	3.66	2.69	17.63	–	–	–	–	–	–	–	–
Fc1ccc(-c2c(-c3ccncc3)nc3n2CCS3)cc1 [SJ000573197-1, EXSB/CR-9802-49AZ]	-3.2	1.347	6.192	4.223	19.21	6.614	10.89	1.128	–	–	–	–	–	–	–	–
CS(=O)(=O)Nc1ccc(-c2ccc3c(NC(=O)C4CC4)n[nH]c3c2)cc1 [SJ000573198-1, VB100064-183A1]	0.3925	7.577	-0.1456	1.388	-2.07	1.64	1.756	0.4517	–	–	–	–	–	–	–	–
CN(C)CCCNc1nccc(-c2c(-c3ccc(F)cc3)nn3cc(C(F)(F)F)ccc23)n1 [SJ000573200-1, U14929/105/1]	3.151	5.185	-0.7094	2.988	2.291	4.716	2.615	6.318	–	–	–	–	–	–	–	–
CCN1CCC(C(=O)Nc2n[nH]c3nnc(-c4cccc(F)c4F)cc23)CC1 [SJ000573202-1, JW48822-155B0]	18.95	22.9	98.67	2.893	29.66	19.17	52.48	106.6	–	–	–	–	–	–	–	–
CCn1c(-c2nonc2N)nc2ccncc21 [SJ000573203-1, JS100940-045A1]	0.1335	-2.227	-0.06255	2.303	1.08	39.85	-1.945	40.02	–	–	–	–	–	–	–	–
NS(=O)(=O)c1cccc(-c2ccc3c(NC(=O)C4CC4)n[nH]c3c2)c1 [SJ000573205-1, VB100064-175A1]	11.82	-1.196	-2.181	8.415	7.36	4.666	1.069	1.524	–	–	–	–	–	–	–	–
COC(=O)c1cncc(/C=C/c2c(C)cc(O)cc2C)c1 [SJ000573206-1, U12614/140/1]	1.326	18.22	1.868	4.986	23.01	31.61	6.215	80.78	–	–	–	–	–	–	–	–
CCCN(CCS(C)(=O)=O)Cc1ccc(-c2ccc3ncnc(Nc4ccc(OCc5cccc(F)c5)c(Cl)c4)c3c2)o1 [SJ000573207-1, U16419/108/1]	2.051	-0.08315	-1.914	1.001	4.462	4.347	1.09	1.892	–	–	–	–	–	–	–	–
CS(=O)(=O)CCNCc1nc(-c2ccc3ncnc(Nc4ccc(F)c(Cl)c4)c3c2)cs1 [SJ000573208-1, R2677/150/1]	1.729	1.192	3.363	0.9399	-0.3412	0.6669	1.268	3.345	–	–	–	–	–	–	–	–
O=C(Nc1n[nH]c2nnc(-c3cccnc3)cc12)C1CC1 [SJ000573209-1, VB49227-069A2]	–	–	–	–	–	–	–	–	58.37	20.82	99.51	10.24	14.39	36.24	53.21	119.5
COc1ccc2ncnc(Nc3ccc(OCc4ccccc4)cc3)c2c1 [SJ000573210-1, 0142W 95C*D]	13.25	-3.821	0.3657	-0.6695	-0.1655	-3.911	1.39	1.162	–	–	–	–	–	–	–	–
CCn1c(-c2nonc2N)nc2cncc(C(=O)N3CC[C@H](N)C3)c21 [SJ000573211-1, MH203936-065A1]	12.04	8.501	6.352	13.35	24.07	24.28	35.54	50.04	–	–	–	–	–	–	–	–
CC1=C(C(=O)Nc2ccc3[nH]ncc3c2)C(c2ccc(F)cc2)NC(=O)N1 (stereo not shown) [SJ000573212-1, SD203460-064A1]	-1.98	2.046	3.347	7.379	0.2192	14.28	13.33	22.73	–	–	–	–	–	–	–	–
O=C1Nc2ccc(-c3cccnc3)cc2C1=Cc1cc(Br)c(O)c(Br)c1 [SJ000573213-1, R10489/16/2]	4.678	2.589	-1.986	4.287	-1.775	4.693	-0.07867	0.4308	–	–	–	–	–	–	–	–
CCNC(=O)O[C@H]1CN[C@H](C#Cc2cc3ncnc(Nc4ccc(OCc5cccc(F)c5)c(Cl)c4)c3s2)C1 [SJ000573214-1, U20348/125/4]	0.5641	3.561	3.079	3.073	-0.8245	5.639	0.06144	-1.307	–	–	–	–	–	–	–	–
